# pIC50, pKi: −log10 of the molar value. Values joined by “and” are separate entries in the source; they are usually repeats but may differ in a detail not shown here. Equal entries are not always repeated. Active and inactive are the calls of the source. The calls are words filed in the database; no cut-off is given here.
# Tests used:
# Mus musculus [1] = assay: Antagonism of apomorphine in reserpinized mice when a dose of 36 micro mol/kg is administered intraperitoneally; type: functional
# Mus musculus [2] = assay: Antagonism of apomorphine in reserpinized mice when a dose of 3.6 micro mol/kg is administered intraperitoneally; type: functional
# Mus musculus [3] = assay: Antagonism of apomorphine for 10-20 minutes in reserpinized mice when a dose of 0.4 micro mol/kg is administered intraperitoneally; type: functional
# Mus musculus [4] = assay: Antagonism of apomorphine for 0-10 minutes in reserpinized mice when a dose of 0.4 micro mol/kg is administered intraperitoneally; type: functional
# Mus musculus [5] = assay: Antagonism of apomorphine for 10-20 minutes in reserpinized mice when a dose of 3.6 micro mol/kg is administered intraperitoneally; type: functional
# Mus musculus [6] = assay: Antagonism of apomorphine for 10-20 minutes in reserpinized mice when a dose of 36 micro mol/kg is administered intraperitoneally; type: functional
# Mus musculus [7] = assay: Ability to stimulate dopaminergic systems by effect on locomotor activity in reserpinized mice when a dose of 0.4 micro mol/kg is administered intraperitoneally; type: functional
# D(2) dopamine receptor [8] = molecular target: T1, D(2) dopamine receptor (Homo sapiens, UniProt P14416); assay: Binding affinity against [3H]U-86,170-labeled dopamine receptor D2 in cloned CHO cells; type: cell-based
# T1 sequence (P14416 whole entry): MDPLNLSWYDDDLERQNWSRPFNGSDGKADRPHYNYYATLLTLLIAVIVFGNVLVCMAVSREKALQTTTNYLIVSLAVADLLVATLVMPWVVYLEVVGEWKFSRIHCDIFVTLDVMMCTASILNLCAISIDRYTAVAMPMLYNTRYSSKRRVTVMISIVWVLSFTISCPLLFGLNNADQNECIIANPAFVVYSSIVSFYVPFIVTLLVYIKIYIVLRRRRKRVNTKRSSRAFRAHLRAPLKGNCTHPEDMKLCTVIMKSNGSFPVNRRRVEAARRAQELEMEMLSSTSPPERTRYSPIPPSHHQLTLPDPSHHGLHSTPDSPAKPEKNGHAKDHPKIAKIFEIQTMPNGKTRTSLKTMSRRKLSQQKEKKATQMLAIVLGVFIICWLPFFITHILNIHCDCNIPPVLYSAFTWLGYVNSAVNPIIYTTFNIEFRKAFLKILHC
# Mus musculus [9] = assay: Ability to stimulate dopaminergic systems by effect on locomotor activity in reserpinized mice when a dose of 36 micro mol/kg is administered intraperitoneally; type: functional
# Mus musculus [10] = assay: Antagonism of apomorphine for 0-10 minutes in reserpinized mice when a dose of 36 micro mol/kg is administered intraperitoneally; type: functional
# Mus musculus [11] = assay: Antagonism of apomorphine for 0-10 minutes in reserpinized mice when a dose of 3.6 micro mol/kg is administered intraperitoneally; type: functional
# Mus musculus [12] = assay: Ability to stimulate dopaminergic systems by effect on locomotor activity in reserpinized mice when a dose of 3.6 micro mol/kg is administered intraperitoneally; type: functional
# Mus musculus [13] = assay: Antagonism of apomorphine in reserpinized mice when a dose of 0.4 micro mol/kg is administered intraperitoneally; type: functional
# D(2) dopamine receptor [14] = molecular target: T2, D(2) dopamine receptor (Rattus norvegicus, UniProt P61169); assay: Inhibitory concentration against [3H]raclopride-labeled dopamine receptor D2 in rat striatum; type: tissue-based
# T2 sequence (P61169 whole entry): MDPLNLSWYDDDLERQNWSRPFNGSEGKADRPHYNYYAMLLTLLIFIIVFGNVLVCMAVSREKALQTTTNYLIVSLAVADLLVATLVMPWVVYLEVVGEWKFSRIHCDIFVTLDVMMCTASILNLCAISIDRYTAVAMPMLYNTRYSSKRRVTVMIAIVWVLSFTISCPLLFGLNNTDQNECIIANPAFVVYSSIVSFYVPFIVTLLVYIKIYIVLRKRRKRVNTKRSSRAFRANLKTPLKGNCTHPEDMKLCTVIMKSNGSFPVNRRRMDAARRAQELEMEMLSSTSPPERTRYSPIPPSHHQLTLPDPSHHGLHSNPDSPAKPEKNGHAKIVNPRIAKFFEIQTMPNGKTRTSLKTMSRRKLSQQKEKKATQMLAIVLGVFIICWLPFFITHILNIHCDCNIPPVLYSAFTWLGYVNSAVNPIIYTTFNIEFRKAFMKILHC
# Rattus norvegicus = assay: Inhibition of firing rates of dopaminergic neurons in the substantia nigra pars compacta by intravenous injection in rats.; type: functional
# D(2) dopamine receptor [15] = molecular target: T1, D(2) dopamine receptor; assay: Intrinsic activity from GTP shift using CHO cell membranes expressing dopamine receptor D2; type: functional
# Mus musculus [16] = assay: Ability to stimulate dopaminergic systems by effect on locomotor activity in reserpinized mice when a dose of 37 micro mol/kg is administered intraperitoneally; type: functional
# Mus musculus [17] = assay: Antagonism of apomorphine for 10-20 minutes in reserpinized mice when a dose of 3.7 micro mol/kg is administered intraperitoneally; type: functional
# D(2) dopamine receptor [18] = molecular target: T2, D(2) dopamine receptor; assay: Binding affinity for [3H]raclopride-labeled dopamine receptor D2 in rat striatum; type: tissue-based
# Mus musculus [19] = assay: Antagonism of apomorphine in reserpinized mice when a dose of 37 micro mol/kg is administered intraperitoneally; type: functional
# Mus musculus [20] = assay: Antagonism of apomorphine for 10-20 minutes in reserpinized mice when a dose of 37 micro mol/kg is administered intraperitoneally; type: functional
# Mus musculus [21] = assay: Ability to stimulate dopaminergic systems by effect on locomotor activity in reserpinized mice when a dose of 3.7 micro mol/kg is administered intraperitoneally; type: functional
# Mus musculus [22] = assay: Antagonism of apomorphine for 0-10 minutes in reserpinized mice when a dose of 37 micro mol/kg is administered intraperitoneally; type: functional
# Mus musculus [23] = assay: Antagonism of apomorphine in reserpinized mice when a dose of 3.7 micro mol/kg is administered intraperitoneally; type: functional
# Mus musculus [24] = assay: Antagonism of apomorphine for 0-10 minutes in reserpinized mice when a dose of 3.7 micro mol/kg is administered intraperitoneally; type: functional
# D(2) dopamine receptor [25] = molecular target: T2, D(2) dopamine receptor; assay: Inhibitory concentration against [3H]raclopride-labeled dopamine receptor D2 in rat striatum was estimated from single point experiment. compound was run at 1 uM
# Mus musculus [26] = assay: Maximum decrease in temperature when compound is administered subcutaneously; type: functional
# Mus musculus [27] = assay: Effective dose on hypothermia in mouse when administered through peroral route; type: functional; conditions: Mus musculus, po; read-out: ED50
# Mus musculus [28] = assay: Effective dose on hypothermia in mouse when administered subcutaneously; type: functional; conditions: Mus musculus, sc; read-out: ED50
# Felis catus = assay: Effective dose at which the sympathetic nerve activity (SND) has been reduced to 50% of the pretreatment value in anesthetized cat; In active; type: functional, organism-based
# [29] = molecular target: Sodium-dependent dopamine transporter (Rattus norvegicus) (UniProt P23977); assay: Inhibition of firing rates of dopaminergic neurons in the substantia nigra pars compacta by intravenous injection in rats; type: functional, tissue-based
# Sequence of Sodium-dependent dopamine transporter (Rattus norvegicus) (P23977 whole entry): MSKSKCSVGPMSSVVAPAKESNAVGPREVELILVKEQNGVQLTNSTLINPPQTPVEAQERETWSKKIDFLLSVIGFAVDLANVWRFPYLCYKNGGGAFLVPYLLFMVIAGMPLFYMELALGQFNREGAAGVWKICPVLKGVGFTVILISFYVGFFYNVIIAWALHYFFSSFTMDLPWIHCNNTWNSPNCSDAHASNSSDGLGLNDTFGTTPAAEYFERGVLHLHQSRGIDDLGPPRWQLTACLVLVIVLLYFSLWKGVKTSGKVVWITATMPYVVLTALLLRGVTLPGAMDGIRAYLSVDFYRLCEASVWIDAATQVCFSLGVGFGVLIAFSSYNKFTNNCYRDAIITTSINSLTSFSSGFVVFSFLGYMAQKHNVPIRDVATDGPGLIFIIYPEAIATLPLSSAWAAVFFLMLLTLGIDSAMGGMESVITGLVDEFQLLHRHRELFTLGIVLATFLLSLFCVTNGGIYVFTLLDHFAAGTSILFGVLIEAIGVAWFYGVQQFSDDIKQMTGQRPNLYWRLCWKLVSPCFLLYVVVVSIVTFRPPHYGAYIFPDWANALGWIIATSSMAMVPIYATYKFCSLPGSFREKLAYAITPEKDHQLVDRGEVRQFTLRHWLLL
# Mus musculus [30] = assay: Time of effect in the face-to-face behavioral assay in the mouse when a dose of 5.4 micro mol/kg is administered subcutaneously; type: functional
# Mus musculus [31] = assay: Time of effect in the face-to-face behavioral assay in the mouse when a dose of 54 micro mol/kg is administered subcutaneously; type: functional
# Mus musculus [32] = organism: Mus musculus; assay: Time of effect in the face-to-face behavioral assay in the mouse […]; type: functional
smiles,measurement,setting,value
CCCN1CC[C@@H]2Cc3c(cccc3OC)C[C@H]21,Locomotor activity,Mus musculus [1],14
same,Locomotor activity,Mus musculus [2],72
same,Locomotor activity,Mus musculus [3],30
same,Locomotor activity,Mus musculus [4],20
same,Locomotor activity,Mus musculus [5],12
same,Locomotor activity,Mus musculus [6],20
same,Locomotor activity,Mus musculus [7],581
same,pKi,D(2) dopamine receptor [8],7.12
same,Locomotor activity,Mus musculus [9],308
same,Locomotor activity,Mus musculus [10],21
same,Locomotor activity,Mus musculus [11],18
same,Locomotor activity,Mus musculus [12],851
same,Locomotor activity,Mus musculus [13],86
same,pIC50,D(2) dopamine receptor [14],< 6.00
C=CCN1CC[C@H]2Cc3c(O)cccc3C[C@@H]21,ED50,Rattus norvegicus,0.94 µmol/kg
same,Intrinsic activity,D(2) dopamine receptor [15],21%
same,Locomotor activity,Mus musculus [3],119
same,Locomotor activity,Mus musculus [16],113
same,Locomotor activity,Mus musculus [17],119
same,Locomotor activity,Mus musculus [4],121
same,pKi,D(2) dopamine receptor [18],7.33
same,Locomotor activity,Mus musculus [7],45
same,pKi,D(2) dopamine receptor [8],6.63
same,Locomotor activity,Mus musculus [19],77
same,Locomotor activity,Mus musculus [13],81
same,Locomotor activity,Mus musculus [20],103
same,Locomotor activity,Mus musculus [21],1
same,Locomotor activity,Mus musculus [22],84
same,Locomotor activity,Mus musculus [23],86
same,Locomotor activity,Mus musculus [24],109
CCCN1CC[C@H]2Cc3c(cccc3OC)C[C@@H]21,pIC50,D(2) dopamine receptor [14],< 6.00
C=CCN1CC[C@@H]2Cc3c(cccc3OC)C[C@@H]21 (racemic),pKi,D(2) dopamine receptor [18],6.37
C=CCN1CC[C@@H]2Cc3cccc(OC)c3C[C@@H]21 (racemic),pIC50,D(2) dopamine receptor [25],< 6.00
CCCN1CC[C@@H]2Cc3c(cccc3OC)C[C@@H]21 (racemic),pIC50,D(2) dopamine receptor [14],< 6.00
CCCN1[C@H](C)C[C@@H]2Cc3cccc(OC)c3C[C@@H]21 (racemic),pIC50,D(2) dopamine receptor [14],< 6.00
C=CCN1CC[C@@H]2Cc3cccc(OC)c3C[C@H]21 (racemic),pIC50,D(2) dopamine receptor [14],< 6.00
Oc1cccc2c1C[C@H]1CCN(CC3CC3)[C@@H]1C2 (racemic),Intrinsic activity,D(2) dopamine receptor [15],73%
same,Locomotor activity,Mus musculus [1],117
same,Locomotor activity,Mus musculus [2],163
same,Locomotor activity,Mus musculus [3],88
same,Locomotor activity,Mus musculus [4],83
same,Locomotor activity,Mus musculus [5],60
same,pKi,D(2) dopamine receptor [18],6.93
same,Locomotor activity,Mus musculus [6],49
same,Locomotor activity,Mus musculus [7],1
same,Locomotor activity,Mus musculus [9],1033
same,Locomotor activity,Mus musculus [10],25
same,Locomotor activity,Mus musculus [11],31
same,Locomotor activity,Mus musculus [12],539
same,Locomotor activity,Mus musculus [13],129
COc1cccc2c1C[C@H]1CCN(Cc3ccccc3)[C@@H]1C2 (racemic),pKi,D(2) dopamine receptor [18],< 5.00
COc1cccc2c1C[C@H]1CCN[C@H]1C2 (racemic),pIC50,D(2) dopamine receptor [14],< 6.00
COc1cccc2c1C[C@H]1CCN(CC3CC3)[C@H]1C2 (racemic),pKi,D(2) dopamine receptor [18],6.13
COc1cccc2c1C[C@H]1CCN(Cc3ccccc3)[C@H]1C2 (racemic),pKi,D(2) dopamine receptor [18],6.33
COc1cccc2c1C[C@H]1CCN[C@@H]1C2 (racemic),Max temperature decrease,Mus musculus [26],6.2
same,ED50,Mus musculus [27],> 125 µmol/kg
same,ED50,Mus musculus [28],1.7 µmol/kg
same,pIC50,D(2) dopamine receptor [14],< 6.00
CCCN1CC[C@@H]2Cc3c(O)cccc3C[C@@H]21 (racemic),Intrinsic activity,D(2) dopamine receptor [15],61%
C=CCN1CC[C@@H]2Cc3c(O)cccc3C[C@H]21 (racemic),Intrinsic activity,D(2) dopamine receptor [15],91%
C=CCN1CC[C@@H]2Cc3c(cccc3OC)C[C@H]21 (racemic),ED50,Felis catus,inactive
same,ED50,[29],> 10.7 µmol/kg and 6.8 µmol/kg
CCCN1CC[C@@H]2Cc3c(O)cccc3C[C@H]21 (racemic),Intrinsic activity,D(2) dopamine receptor [15],79%
CC(N)Cc1ccccc1.O=S(=O)(O)O (stereo unspecified) [AMPHETAMINE SULFATE],Time,Mus musculus [30],2.4 s
same,Time,Mus musculus [31],2.9 s
same,Time,Mus musculus [32],2.6 s

# Source: ChEMBL document CHEMBL1126639, “Centrally acting serotonergic and dopaminergic agents. 2. Synthesis and structure-activity relationships of 2,3,3a,4,9,9a-hexahydro-1H-benz[f]indole derivatives” (J Med Chem, 1993)
